Experimental data taken from patent US5994365A, “Substituted diazaanthracene compounds having pharmaceutical utility” (Diazans Limited, priority 1998, dated 1999).
Where “and” joins values, the source holds several entries; their conditions need not be identical. Equal values may be shown once.

Assays:
T. glabrata ATCC 90030 = experiment: In vitro antifungal susceptibility assay adapted from NCCLS (MIC); format: cell-based, Torulopsis glabrata; conditions: RPMI-1640
Procedure: Compounds of the invention also display antifungal activities. […] Using C. albicans ATCC® 90028, C. neoformans ATCC® 90112 and T. glabrata ATCC® 90030, the protocol is performed as follows:
Prepare 0.0128 g DAA in 10 mL dH2 O (or other if H2 O insoluble)=1280 μg/mL (stock solution). Dilute DAA stock solution 1:10 with RPMI-1640: 0.5 mL DAA stock solution+4.5 mL RPMI-1640=128 μg/mL (DAA working solution).
Inoculate rows A-H, columns 2-12 with 100 μl of RPMI-1640 using Eppendorf repeater pipette. Inoculate rows A-C columns 1 and 2 with 100 μl of 1st antibiotic (i.e. DAA-1) using electronic pipette. Inoculate rows E-G columns 1 and 2 with 100 μl of 2nd antibiotic (i.e. DAA-2) using electronic pipette. […] Plate is now ready for fungal inocula, which involves pipetting 100 μl of the inocula into all wells in rows A-C columns 1-12 and rows E-G columns 1-12. […]
Five colonies greater than 1 mm in diameter are suspended in a spectrophotometer cuvette containing 5 mL of sterile, 0.85% saline (colonies are obtained from 24 hrs. old Candida and Torulopsis cultures, while Cryptococcus colonies are chosen from 48 hrs. old cultures). Spectrophotometer is set to read % transmission at a wavelength of 530 nm, and is standardized using two cuvettes. […] Fungal inoculum is now prepared and ready to be introduced to microplates. […]

[1] = system: Methicillin-resistant Staph aureus (MRSA); experiment: Broth microdilution (NCCLS guidelines), MIC; format: cell-based, Staphylococcus aureus
Procedure: The dimer product of Example 15 was obtained in powder form. A stock solution of 1280 mg/L of the dimer in dimethylsulfoxide (DMSO) was prepared and stored at room temperature in a foil-wrapped screw-capped tube (10 ml). Subsequent dilutions were prepared using cation-adjusted Mueller-Hinton broth (50 mg/L Mg). […] It was resuspended upon mixing each time an aliquot was taken from the solution.
Approximately 100 varied bacterial isolates were initially collected for screening, along with 9 ATCC organisms. Forty additional strains of Staphylococcus species were subsequently screened. All isolates were identified according to generally accepted lab protocol.
(§1) Broth microdilution was performed according to NCCLS guidelines. Microdilution panels were prepared using doubling dilutions of the dimer in ~250 μl plastic, 96-well trays. Inoculum suspension equal to a 0.5 McFarland standard were further diluted and added to the microdilution trays to achieve a final inoculum of 5×10^5 CFU/ml (5×10^4 CFU/well). Colony counts were performed to confirm the final inoculum, as well as its purity. Each strain was also tested in a growth control well containing only MHB for viability.
Microdilution trays were incubated at 35° C. in ambient air or 5% CO2 as appropriate for 16-20 hours. After incubation, the minimal inhibitory concentration (MIC) was defined as the lowest concentration of the dimer with no evidence of growth. Since 10 or more strains of most organisms were tested; a range of MICs was determined for each organism, as well as the concentration of the dimer that inhibited 50% of the strains (MIC50) and the concentration of the dimer that inhibited 90% of the strains (MIC90).

[2] = system: Staneg (coagulase negative Staph); experiment: Minimal bactericidal concentration (MBC), 99.9% kill; format: cell-based, Coagulase negative staphylococci; set-up: unit not given here
Procedure: as §1
Various isolates were also tested for minimal bactericidal concentration (MBC) (see Tables D and F).
Subbed clear wells (50 μl) Inoculum 5 × 10^4 /well
99.9% kill = 50 cols/well
Subbed 50 μl of ≤5 clear wells

[3] = Table C, 10 strains, solution 14 days old
[4] = Table E, 10 strains, fresh solution

## 10,10'-bis(3,6-dimethyl-5,10-dihydro-1,8-diazaanthracen-5-one) and 5,5'-bis(3,6-dimethyl-5,10-dihydro-1,8-diazaanthracen-10-one) [Example 15]
T. glabrata ATCC 90030
  MIC: 16 µg/mL
[1]; Table A, 12 strains
  MIC50: 0.5 µg/mL
  MIC90: 1.0 µg/mL
  Range of MICs: 0.25 to 1.0 mg/L
[1]; Table A, ATCC MRSA 33591
  MIC: 0.5 µg/mL
[1]; [3]
  MIC50: > 16 µg/mL
  MIC90: > 16 µg/mL
[1]; Table C, 10 strains, solution 14 days old, in µg/mL
  Range of MICs: > 16
[1]; Table C, ATCC MRSA 33591, solution 14 days old, listed as Dimer, in µg/mL
  MICs: 8 and 16
[1]; [4]
  MIC50: 2 µg/mL
  MIC90: 8 µg/mL
[1]; Table E, 10 strains, fresh solution, in µg/mL
  Range of MICs: 0.5-8
[1]; Table E, ATCC MRSA 33591 (×2), fresh solution, in µg/mL
  MICs: 1.0
[1]; Table F, MRSA 2
  MIC: 8 µg/mL
[1]; Table F, MRSA 4
  MIC: 2 µg/mL
[1]; Table F, MRSA 6
  MIC: 0.5 µg/mL
[1]; Table G, 10 strains
  MIC50: 2 µg/mL
  MIC90: 8 µg/mL
  Range of MICs: 0.5 to 8 mg/L
[2]; Table D, Staneg 1, skipped wells
  MBC: > 16
[2]; Table D, Staneg 2, skipped wells
  MBC: > 4
[2]; Table D, Staneg 3
  MBC: 16
[2]; Table D, Staneg 4
  MBC: > 16
[2]; Table D, Staneg 5, skipped wells
  MBC: 16
[2]; Table D, Staneg 6
  MBC: 8
[2]; Table D, Staneg 7, skipped wells
  MBC: > 16
[2]; Table D, Staneg 8
  MBC: 16
[2]; Table F, Staneg 1
  MBC: > 1.0
[2]; Table F, Staneg 4, skipped wells
  MBC: > 16
[2]; Table F, Staneg 7
  MBC: 1.0
